The source of these data is patent publication US8575164B2, “Combination cancer therapy” (OSI Pharmaceuticals, LLC, priority 2005, dated 2013).

For assay [1], the system named is H292 human non-small cell lung carcinoma cell line. As to conditions: H292 cells in culture; single agent or combination. The method, then:
The basis of the assay is a luminescent quantitation of ATP present in a cell culture plate well. In essence, the greater the number of viable cells in the well, the greater the level of ATP present. […] Results were calculated as a fraction of the DMSO controlled cells.

Assay [2] has the same test system. As to conditions: H292 cells in culture; single agent or combination. The source holds these as a separate data set.
Procedure: To monitor cell apoptosis, DNA fragmentation was measured by using a commercially available kit from Roche. Cells were plated in 90 ul of 10% serum-containing growth media at a density of 5000 cells/well in a 96-well culture plate. On day 2, cells were treated with 10 ul of 10× concentrations of drugs or DMSO alone for a final well volume of 100 ul. After 48 h treatment with the drugs, the cells were assayed for DNA fragmentation according to the manufacture instructions. Results were calculated as fold of induction of DNA fragmentation of the DMSO controlled cells.
In another assay the test system is colorectal cancer. As to conditions: cited from earlier work.

Structures are written as SMILES. Read-outs that look alike come from different tables or passages of the source.

Take `C#Cc1cccc(Nc2ncnc3cc(OCCOC)c(OCCOC)cc23)c1` [TARCEVA™, [6,7-bis(2-methoxyethoxy)-4-quinazolin-4-yl]-(3-ethynylphenyl)amine]: in assay [1], the “inhibition of cell proliferation” value is given as “inhibited cell proliferation”. In addition, the induction of apoptosis result in assay [2] is “induced apoptosis”.

Turning to `O=C1[O][Pt]2([NH][C@@H]3CCCC[C@H]3[NH]2)[O]C1=O` [oxaliplatin], in the assay on colorectal cancer (combined with 5-FU and leucovorin, first-line treatment for colorectal cancer), the response rates was 25-40%.

Turning to `O=c1[nH]cc(F)c(=O)[nH]1` [5-fluorouracil], the response rates result in the assay with colorectal cancer (single-agent treatment for advanced colorectal cancer) is listed as “about 10%”.
